For series [1] the following is noted: in vivo. From the text: 1. Acute toxicity test: including tests of administrating medicine orally, intravenous injection and maximum limit amount for administration;
The nature of series [2]: Typical case: breast cancer patient, metastasis after operation. In kind it is in vivo, human. The settings on record: injection 15 g/60 kg/day before and for a week after the operation; within one year after the operation. From the text: Chen, female, was accepted by the Department of Surgery of Chuanxinan Mining Area Hospital for suffering with breast cancer. The chief physician, Chen Qi, considered the high metastasis rate after operation, administrated Chen via injected with the compound of formula (I) in a dose of 15 g/60 kg/day before the operation and for a continuous week after the operation.

Series [3] concerns B16 cells. Put plainly: Sole-injected B16 tumor growth in mice. In kind it is in vivo, Kunming mice and Balbc mice. More on the design: Diameter of tumor: unit not given here. The settings on record: for Diameter of tumor: 10% aqueous solution i.p. The procedure:
1.1 Animals Kunming mice, Scad male mice
1.2 Tumor cells: B16 cells, PG cells and Biu cells, which were presented by from the Staff Room of Pathology of the present university and the Tumor Department of the Second Affiliated Hospital, respectively.
1.3 Methods: soles of Kunming mice and Balbc mice were injected with B16 cell suspension, and these mice were intraperitoneally injected with 10% aqueous solution of the compound of formula (I) at 0th, 4th and 7th day after B16 cells were injected.

Series [4] deals with Proteus Mirabilis. As to the kind of experiment: Promoting wave test (bio-wave model). In kind it is cell-based. The settings on record: final concentration 0.5% on LB plate, 37° C. The source says:
2. Experimental results and evaluation: • The experiment adopted a bio-wave model for studying the promoting wave function of the compound of formula (I).

Molecules are shown by their SMILES.

As for `CC(=O)N[C@@H]1[C@@H](O)[C@H](O)[C@@H](CO)O[C@H]1O` [compound of formula (I), N-acetyl-D-glucosamine], in series [1], the “acute dosage relative to the injection dosage for human being” value is reported as 300 times. The “dosage at which the acute toxicosis reaction had not appeared” value in series [1] is reported as “more than 2 g/kg”. In addition, the metastasis after operation entry in series [2] is given as “no metastasis occurred”. The Diameter of tumor in series [3] (Group I (administered immediately), observation time 3) is listed as 0; in series [3] (Group I (administered immediately), observation time 7), 0.11; in series [3] (Group I (administered immediately), observation time 14) it was 0.18; in series [3] (Group I (administered immediately), observation time 21) it was 0.21; in series [3] (Group I (administered immediately), observation time 28) it was 0.15; in series [3] (Group II (administered at the 4th day), observation time 3), 0.05. In addition, the Diameter of tumor in series [3] (Group II (administered at the 4th day), observation time 7) worked out at 0.12; in series [3] (Group II (administered at the 4th day), observation time 14), 0.43; in series [3] (Group II (administered at the 4th day), observation time 21), 0.58; in series [3] (Group II (administered at the 4th day), observation time 28), 0.72; in series [3] (Group III (administered at the 7th day), observation time 3), 0.1; in series [3] (Group III (administered at the 7th day), observation time 7) it was 0.21. For the same compound, the Diameter of tumor in series [3] (Group III (administered at the 7th day), observation time 14) is 0.60; in series [3] (Group III (administered at the 7th day), observation time 21), 1.10; in series [3] (Group III (administered at the 7th day), observation time 28) it was 1.38. The growth of tumor result in series [3] (high concentration intraperitoneally injected, B16 cells) is “inhibited”. For the same compound, in series [4], the “promoting wave function (ring pattern compared with control)” value is listed as “many fine waves on each ring emerged”.

For the origin of these results see patent US20070207198A1, “Use Of N-Acety1-D-Glucosamine In The Manufacture Of Medicaments For Anti-Tumors And Anti-Metastasis” (Beijing Sino-Hong Kong Dafu Science & Technology of Biowave …, priority 2003, published 2007).
